Reference: patent publication US10066270B2, “Methods and kits used in classifying adrenocortical carcinoma” (THE TRANSLATIONAL GENOMICS RESEARCH INSTITUTE, priority 2010, dated 2018)

Key:
[1] = system: PTTG1; assay: PTTG1 expression in H259R ACC cell line, relative to beta-actin; assay type: cell-based
Excerpt: FIG. 7 depicts the effect of vorinostat on the ACC cell line H259R.

[2] = system: PTTG1; assay: PTTG1 expression in SW-13 ACC cell line, relative to beta-actin; assay type: cell-based
Excerpt: FIG. 6 depicts the effect of vorinostat on the ACC cell line SW-13.

[3] = system: adrenocortical carcinoma; settings: ACC patients; cited from earlier work

Row | SMILES | effect on PTTG1 expression [1] | effect on PTTG1 expression [2] | patients showing a response [3] | side effects [3]
1 | O=C(CCCCCCC(=O)Nc1ccccc1)NO [Vorinostat] | reduces PTTG1 expression | reduces PTTG1 expression | – | –
2 | Clc1ccc(C(c2ccccc2Cl)C(Cl)Cl)cc1 (stereo not shown) [mitotane] | – | – | approximately 22% | severe, dose limiting side effects
